Experimental data: PMC10051910 (Marine Drugs, 2023)

Test system: COMI cells
Format: cell-based, Human

Compound: CC[C@@]1(O)C(=O)OCc2c1cc1n(c2=O)Cc2cc3ccccc3nc2-1 [camptothecin]
- p53 level: massively upregulate p53
